Results: ChEMBL document CHEMBL4411303, “Synthesis of tetrazole derivatives bearing pyrrolidine scaffold and evaluation of their antifungal activity against Candida albicans” (Eur J Med Chem, 2019)
Converted amounts (≈) assume the structure as drawn. The source made the active and inactive calls. The rule behind the calls is not given here.

What was measured:
Candida albicans [1] = assay: Antifungal activity against Candida albicans ATCC 90028 assessed as planktonic growth inhibition at 0.08 uM after 48 hrs by M27-A3 protocol based method relative to control; type: functional; details: ATCC 90028, 48 h, read-out: GI
Candida albicans [2] = assay: Antifungal activity against Candida albicans ATCC 90028 assessed as planktonic growth inhibition at 0.16 uM after 48 hrs by M27-A3 protocol based method relative to control; type: functional; details: ATCC 90028, 48 h, read-out: GI
Candida albicans [3] = assay: Antifungal activity against Candida albicans ATCC 90028 assessed as planktonic growth inhibition at 0.65 uM after 48 hrs by M27-A3 protocol based method relative to control; type: functional; details: ATCC 90028, 48 h, read-out: GI
Candida albicans [4] = assay: Antifungal activity against Candida albicans ATCC 90028 assessed as planktonic growth inhibition at 0.32 uM after 48 hrs by M27-A3 protocol based method relative to control; type: functional; details: ATCC 90028, 48 h, read-out: GI
Candida albicans [5] = assay: Antifungal activity against Candida albicans ATCC 90028 assessed as planktonic growth inhibition at 1.3 uM after 48 hrs by M27-A3 protocol based method relative to control; type: functional; details: ATCC 90028, 48 h, read-out: GI
Candida albicans [6] = assay: Antifungal activity against Candida albicans ATCC 90028 assessed as planktonic growth inhibition at 2.59 uM after 48 hrs by M27-A3 protocol based method relative to control; type: functional; details: ATCC 90028, 48 h, read-out: GI
Candida albicans [7] = assay: Antifungal activity against Candida albicans ATCC 90028 assessed as planktonic growth inhibition at 5.18 uM after 48 hrs by M27-A3 protocol based method relative to control; type: functional; details: ATCC 90028, 48 h, read-out: GI
Candida albicans [8] = assay: Antifungal activity against Candida albicans ATCC 90028 assessed as planktonic growth inhibition at 10.37 uM after 48 hrs by M27-A3 protocol based method relative to control; type: functional; details: ATCC 90028, 48 h, read-out: GI
Candida albicans [9] = assay: Antifungal activity against Candida albicans ATCC 90028 assessed as planktonic growth inhibition at 20.73 uM after 48 hrs by M27-A3 protocol based method relative to control; type: functional; details: ATCC 90028, 48 h, read-out: GI
Candida albicans [10] = assay: Antifungal activity against Candida albicans ATCC 90028 assessed as planktonic growth inhibition at 41.47 uM after 48 hrs by M27-A3 protocol based method relative to control; type: functional; details: ATCC 90028, 48 h, read-out: GI
Candida albicans [11] = assay: Fungicidal activity against Candida albicans ATCC 90028 assessed as log reduction in fungal load incubated for 48 hrs followed by replating on sabouraud dextrose agar plate and measured after 48 hrs; type: functional
[12] = Selectivity index, ratio of CC50 for African green monkey Vero cells to IC50 for Candida albicans ATCC 90028; type: toxicity; details: read-out: Ratio CC50/IC50
[13] = Toxicity in Galleria mellonella larvae assessed as survival rate at 41.47 uM measured after 18 hrs (reference value: 100%)
[14] = Toxicity in Galleria mellonella larvae assessed as survival rate at 41.47 uM measured after 48 hrs (reference value: 100%)
[15] = Toxicity in Galleria mellonella larvae assessed as survival rate at 41.47 uM measured after 120 hrs (reference value: 100%)
[16] = Toxicity in Galleria mellonella larvae assessed as movement melanization at 41.47 uM measured after 18 hrs (reference value: 0%)
[17] = Toxicity in Galleria mellonella larvae assessed as movement melanization at 41.47 uM measured after 48 hrs (reference value: 0%)
[18] = Toxicity in Galleria mellonella larvae assessed as movement melanization at 41.47 uM measured after 128 hrs (reference value: 0%)
[19] = Toxicity in Galleria mellonella larvae assessed as cocoon formation at 41.47 uM measured after 18 hrs (reference value: 60 +/- 20%)
[20] = Toxicity in Galleria mellonella larvae assessed as cocoon formation at 41.47 uM measured after 48 hrs (reference value: 85 +/- 5%)
[21] = Toxicity in Galleria mellonella larvae assessed as cocoon formation at 41.47 uM measured after 48 hrs (reference value: 100 +/- 0%)
Candida albicans [22] = assay: Antibiofilm activity against Candida albicans ATCC 90028 assessed as inhibition of biofilm formation after 24 hrs by XTT assay; type: functional, organism-based; details: ATCC 90028, 24 h
Candida albicans [23] = assay: Antifungal activity against Candida albicans ATCC 90028 assessed as reduction in cell growth after 48 to 72 hrs by M27-A3 protocol based method; type: functional
Candida albicans [24] = assay: Antifungal activity against Candida albicans ATCC 90028 assessed as reduction in cell growth after 48 to 72 hrs in presence of ergosterol by M27-A3 protocol based method; type: functional
Candida albicans [25] = assay: Inhibition of Candida albicans ATCC 90028 cell adhesion to human TR146 cells at reduction in cell adherence at 41.47 uM relative to control; type: functional; details: ATCC 90028, TR146
Candida albicans [26] = assay: Induction of reactive oxygen species generation in Candida albicans ATCC 90028 assessed as ROS level at 41.47 uM after 18 hrs by DCFDA probe based flow cytometry (reference value: 0.3%); type: functional
Candida albicans [27] = assay: Cell cycle arrest in Candida albicans ATCC 90028 assessed as accumulation at G0/G1-phase by propidium iodide staining based flow cytometry; type: functional, organism-based
Candida albicans [28] = assay: Induction of Candida albicans ATCC 90028 internalization in mouse RAW264.7 cells assessed as reduction in fungus-induced cell damage by measuring live and early apoptotic cells at 41.47 uM after 2 hrs acridine orange/ethidium bromide staining based confocal scanning microscopic analysis; type: functional, organism-based
Candida albicans [29] = assay: Antifungal activity against Candida albicans ATCC 90028 assessed as planktonic growth inhibition at 0.09 uM after 48 hrs by M27-A3 protocol based method relative to control; type: functional; details: ATCC 90028, 48 h, read-out: GI
Candida albicans [30] = assay: Antifungal activity against Candida albicans ATCC 90028 assessed as planktonic growth inhibition at 0.17 uM after 48 hrs by M27-A3 protocol based method relative to control; type: functional; details: ATCC 90028, 48 h, read-out: GI
Candida albicans [31] = assay: Antifungal activity against Candida albicans ATCC 90028 assessed as planktonic growth inhibition at 0.34 uM after 48 hrs by M27-A3 protocol based method relative to control; type: functional; details: ATCC 90028, 48 h, read-out: GI
Candida albicans [32] = assay: Antifungal activity against Candida albicans ATCC 90028 assessed as planktonic growth inhibition at 0.68 uM after 48 hrs by M27-A3 protocol based method relative to control; type: functional; details: ATCC 90028, 48 h, read-out: GI
Candida albicans [33] = assay: Antifungal activity against Candida albicans ATCC 90028 assessed as planktonic growth inhibition at 1.37 uM after 48 hrs by M27-A3 protocol based method relative to control; type: functional; details: ATCC 90028, 48 h, read-out: GI
Candida albicans [34] = assay: Antifungal activity against Candida albicans ATCC 90028 assessed as planktonic growth inhibition at 2.74 uM after 48 hrs by M27-A3 protocol based method relative to control; type: functional; details: ATCC 90028, 48 h, read-out: GI
Candida albicans [35] = assay: Antifungal activity against Candida albicans ATCC 90028 assessed as planktonic growth inhibition at 5.47 uM after 48 hrs by M27-A3 protocol based method relative to control; type: functional; details: ATCC 90028, 48 h, read-out: GI
Candida albicans [36] = assay: Antifungal activity against Candida albicans ATCC 90028 assessed as planktonic growth inhibition at 10.95 uM after 48 hrs by M27-A3 protocol based method relative to control; type: functional; details: ATCC 90028, 48 h, read-out: GI
Candida albicans [37] = assay: Antifungal activity against Candida albicans ATCC 90028 assessed as planktonic growth inhibition at 21.89 uM after 48 hrs by M27-A3 protocol based method relative to control; type: functional; details: ATCC 90028, 48 h, read-out: GI
Candida albicans [38] = assay: Antifungal activity against Candida albicans ATCC 90028 assessed as planktonic growth inhibition at 43.78 uM after 48 hrs by M27-A3 protocol based method relative to control; type: functional; details: ATCC 90028, 48 h, read-out: GI

Question: Which results are given for `Fc1ccc(C2CCCN2CCCn2nnc(-c3ccc(Cl)cc3)n2)cc1` (centres undefined)?
Answer: inhibition of growth at 0.08 µM (Candida albicans [1]): 99.4%; inhibition of growth at 0.16 µM (Candida albicans [2]): 99.4%; inhibition of growth at 0.65 µM (Candida albicans [3]): 99.4%; inhibition of growth at 0.32 µM (Candida albicans [4]): 99.4%; inhibition of growth at 1.3 µM (Candida albicans [5]): 99.2%; inhibition of growth at 2.59 µM (Candida albicans [6]): 99.5%; inhibition of growth at 5.18 µM (Candida albicans [7]): 99.4%; inhibition of growth at 10.37 µM (Candida albicans [8]): 99.1%; inhibition of growth at 20.73 µM (Candida albicans [9]): 98.9%; inhibition of growth at 41.47 µM (Candida albicans [10]): 99%; log(activity) (Candida albicans [11]): -0.2; selectivity ratio [12]: 2; survival at 18 h, 41.47 µM [13]: 100%; survival at 48 h, 41.47 µM [14]: 100%; survival at 120 h, 41.47 µM [15]: 83%; Activity [16]: 0%; Activity [17]: 0%; Activity [18]: 13%; Activity [19]: 60%; Activity [20]: 80%; Activity [21]: 80%; IC50 (Candida albicans [22]): 10.4 µM; MIC (Candida albicans [23]): 10.4 µM (≈ 4 µg/mL); MIC (Candida albicans [24]): 20.7 µM; inhibition at 41.47 µM (Candida albicans [25]): > 95%; Activity (Candida albicans [26]): 12 - 16%; Activity (Candida albicans [27]): Active; Activity (Candida albicans [28]): Active

Question: For `Cc1ccc(-c2nnn(CCCN3CCCC3c3ccc(F)cc3)n2)cc1` (centres undefined), which inhibition of growth at 0.09 µM (Candida albicans [29]) is on record?
Answer: 99.1%

Question: What about the inhibition of growth at 0.17 µM (Candida albicans [30]) of the same molecule?
Answer: 99.1%

Question: And the inhibition of growth at 0.34 µM (Candida albicans [31])?
Answer: 99.2%

Question: And the inhibition of growth at 0.68 µM (Candida albicans [32])?
Answer: 99.1%

Question: What about the inhibition of growth at 1.37 µM (Candida albicans [33]) of the same molecule?
Answer: 99.2%

Question: What about the inhibition of growth at 2.74 µM (Candida albicans [34]) of the same molecule?
Answer: 99.2%

Question: What about the inhibition of growth at 5.47 µM (Candida albicans [35]) of the same molecule?
Answer: 99%

Question: And the inhibition of growth at 10.95 µM (Candida albicans [36])?
Answer: 99.4%

Question: And the inhibition of growth at 21.89 µM (Candida albicans [37])?
Answer: 98.7%

Question: And the inhibition of growth at 43.78 µM (Candida albicans [38])?
Answer: 98.9%

Question: And the “log(activity)” value (Candida albicans [11])?
Answer: -0.3
